Test results reported in patent US12459951B2, “Compounds that interact with RAS superfamily proteins for treatment of cancers, inflammatory diseases, rasopathies, and fibrotic disease” (SHY Therapeutics, LLC, priority 2022, dated 2025).

Tests used:
Rac-1 = biological target: T1, Rac-1 (Homo sapiens, UniProt P63000); experiment: Ras GTP Binding Domain Inhibition Assay (Ras Superfamily Assay); settings: read-out: Rac-1: % inh.
T1 construct: made in house
Summary of the method: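 Ni-plate capture of His-tagged protein (10-30 μg/mL, o/n 4° C); cpd 20 μM or dilution series, 1% DMSO, 3 h RT ± Sos 556-1049 last h; 100 nM Cy-labelled GTP 45 min RT; 3× wash; fluorescence read.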

Erk1/2 phosphorylation = experiment: Erk1/2 Phosphorylation Assay (western blot), Panc-1; type: cell-based, human; settings: at 10 μM, * = activation
Summary of the method: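 KRas G12D Panc-1 cells were treated 6 h at 37° C with compound at 10 μM or serial dilutions for IC50 (0.3% DMSO). In method 1, cells were serum-starved overnight (0.5% FBS) and then given 1.5 ng/ml EGF for 15 min. In method 2, cells stayed in 10% FBS without stimulation. Lysate phospho-Erk1/2 (Thr202/Tyr204) was read by western blot.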

Row | SMILES | inhibition at 20 µM (Rac-1) | % inh of Erk1/2 phosphorylation in Panc-1 (Erk1/2 phosphorylation)
1 | Cc1c(-c2ccn(C)n2)cn2nc(-c3nccn3C)nc(Nc3ccc(N(C)C)cn3)c12 [Compound 227, N5,N5-Dimethyl-N2-(5-methyl-2-(1-methyl-1H-imidazol-2-yl)-6-(1-methyl-1H-pyrazol-3-yl)pyrrolo[2,1-f][1,2,4]triazin-4-yl)pyridine-2,5-diamine] | 76 to 100% | C* (46-84% activation)
2 | Cc1c(-c2ccn(C)n2)cn2nc(-c3nccn3C)nc(Nc3ccc(N4CCCC4)cn3)c12 [Compound 228, 5-Methyl-2-(1-methyl-1H-imidazol-2-yl)-6-(1-methyl-1H-pyrazol-3-yl)-N-(5-(pyrrolidin-1-yl)pyridin-2-yl)pyrrolo[2,1-f][1,2,4]triazin-4-amine] | 76 to 100% | A* (1-25% activation)
3 | CCOc1ccc(Nc2nc(-c3nccn3C)nn3cc(-c4ccn(C)n4)c(C)c23)nc1 [Compound 229, N-(5-Ethoxypyridin-2-yl)-5-methyl-2-(1-methyl-1H-imidazol-2-yl)-6-(1-methyl-1H-pyrazol-3-yl)pyrrolo[2,1-f][1,2,4]triazin-4-amine] | 76 to 100% | A (1-25% inhibition)
4 | Cc1c(-c2ccn(C)n2)cn2nc(-c3nccn3C)nc(Nc3ccc(OCC(F)(F)F)cn3)c12 [Compound 230, 5-Methyl-2-(1-methyl-1H-imidazol-2-yl)-6-(1-methyl-1H-pyrazol-3-yl)-N-(5-(2,2,2-trifluoroethoxy)pyridin-2-yl)pyrrolo[2,1-f][1,2,4]triazin-4-amine] | 76 to 100% | D* (85-100% activation)
5 | Cc1c(-c2ccn(C)n2)cn2nc(-c3nccn3C)nc(Nc3ccc(OC(F)F)cn3)c12 [Compound 231, N-(5-(Difluorometh-oxy)pyridin-2-yl)-5-methyl-2-(1-methyl-1H-imidazol-2-yl)-6-(1-methyl-1H-pyrazol-3-yl)pyrrolo[2,1-f][1,2,4]triazin-4-amine] | 76 to 100% | D* (85-100% activation)
6 | Cc1c(-c2ccn(C)n2)cn2nc(-c3nccn3C)nc(Nc3ccc(OC(F)(F)F)cn3)c12 [Compound 232, 5-Methyl-2-(1-methyl-1H-imidazol-2-yl)-6-(1-methyl-1H-pyrazol-3-yl)-N-(5-(trifluoro-methoxy)pyridin-2-yl)pyrrolo[2,1-f][1,2,4]triazin-4-amine] | 76 to 100% | B* (26-49% activation)
7 | Cc1c(-c2ccn(C)n2)cn2nc(-c3nccn3C)nc(Nc3ccc(C(F)(F)F)cn3)c12 [Compound 233, 5-Methyl-2-(1-methyl-1H-imidazol-2-yl)-6-(1-methyl-1H-pyrazol-3-yl)-N-(5-(trifluoromethyl)pyridin-2-yl)pyrrolo[2,1-f][1,2,4]triazin-4-amine] | 76 to 100% | D* (85-100% activation)
8 | Cc1c(-c2ccn(C)n2)cn2nc(-c3nccn3C)nc(Nc3ccc(C(F)F)cn3)c12 [Compound 234, N-(5-(Difluoromethyl)pyridin-2-yl)-5-methyl-2-(1-methyl-1H-imidazol-2-yl)-6-(1-methyl-1H-pyrazol-3-yl)pyrrolo[2,1-f][1,2,4]triazin-4-amine] | 76 to 100% | D* (85-100% activation)
9 | COc1cc(Nc2nc(-c3nccn3C)nn3cc(-c4ccn(C)n4)c(C)c23)ncc1C [Compound 235, N-(4-Methoxy-5-methylpyridin-2-yl)-5-methyl-2-(1-methyl-1H-imidazol-2-yl)-6-(1-methyl-1H-pyrazol-3-yl)pyrrolo[2,1-f][1,2,4]triazin-4-amine] | 50 to 75% | B* (26-49% activation)
10 | COc1cnc(Nc2nc(-c3nccn3C)nn3cc(-c4ccn(C)n4)c(C)c23)cc1C [Compound 236, N-(5-Methoxy-4-methylpyridin-2-yl)-5-methyl-2-(1-methyl-1H-imidazol-2-yl)-6-(1-methyl-1H-pyrazol-3-yl)pyrrolo[2,1-f][1,2,4]triazin-4-amine] | 50 to 75% | D* (85-100% activation)
11 | COc1cc(Nc2nc(-c3nccn3C)nn3cc(-c4ccn(C)n4)c(C)c23)ncc1F [Compound 237, N-(5-Fluoro-4-methoxypyridin-2-yl)-5-methyl-2-(1-methyl-1H-imidazol-2-yl)-6-(1-methyl-1H-pyrazol-3-yl)pyrrolo[2,1-f][1,2,4]triazin-4-amine] | 76 to 100% | 0 (0% inhibition)
12 | COc1cc(Nc2nc(-c3nccn3C)nn3cc(-c4ccn(C)n4)c(C)c23)ncc1C1CC1 [Compound 238, N-(5-Cyclopropyl-4-methoxypyridin-2-yl)-5-methyl-2-(1-methyl-1H-imidazol-2-yl)-6-(1-methyl-1H-pyrazol-3-yl)pyrrolo[2,1-f][1,2,4]triazin-4-amine] | 76 to 100% | A (1-25% inhibition)
13 | Cc1cnc2c(c1)CCN2c1nc(-c2nccn2C)nn2cc(-c3ccn(C)n3)c(C)c12 [Compound 239, 5-Methyl-2-(1-methyl-1H-imidazol-2-yl)-6-(1-methyl-1H-pyrazol-3-yl)-4-(5-methyl-2,3-dihydro-1H-pyrrolo[2,3-b]pyridin-1-yl)pyrrolo[2,1-f][1,2,4]triazine] | 76 to 100% | C* (46-84% activation)
14 | Cc1c(-c2ccn(C)n2)cn2nc(-c3nccn3C)nc(Nc3cc(C(C)(C)O)ccn3)c12 [Compound 240, 2-(2-((5-Methyl-2-(1-methyl-1H-imidazol-2-yl)-6-(1-methyl-1H-pyrazol-3-yl)pyrrolo[2,1-f][1,2,4]triazin-4-yl)amino)pyridin-4-yl)propan-2-ol] | 76 to 100% | A* (1-25% activation)
15 | Cc1c(-c2ccn(C)n2)cn2nc(-c3nccn3C)nc(Nc3ccc(C(C)(C)O)cn3)c12 [Compound 241, 2-(6-((5-Methyl-2-(1-methyl-1H-imidazol-2-yl)-6-(1-methyl-1H-pyrazol-3-yl)pyrrolo[2,1-f][1,2,4]triazin-4-yl)amino)pyridin-3-yl)propan-2-ol] | 76 to 100% | D* (85-100% activation)
16 | Cc1c(-c2ccn(C)n2)cn2nc(-c3nccn3C)nc(Nc3ccc(-n4ccnc4)cn3)c12 [Compound 242, N-(5-(1H-Imidazol-1-yl)pyridin-2-yl)-5-methyl-2-(1-methyl-1H-imidazol-2-yl)-6-(1-methyl-1H-pyrazol-3-yl)pyrrolo[2,1-f][1,2,4]triazin-4-amine] | 1 to 25% | 0 (0% inhibition)
17 | Cc1c(-c2ccn(C)n2)cn2nc(-c3nccn3C)nc(Nc3ccc(-n4ccnc4C)cn3)c12 [Compound 243, 5-Methyl-N-(5-(2-methyl-1H-imidazol-1-yl)pyridin-2-yl)-2-(1-methyl-1H-imidazol-2-yl)-6-(1-methyl-1H-pyrazol-3-yl)pyrrolo[2,1-f][1,2,4]triazin-4-amine] | 76 to 100% | C* (46-84% activation)
